{"source": "patent US10758522B2", "about": "“Small molecule analogs of the nemo binding peptide” (THE SCRIPPS RESEARCH INSTITUTE, priority 2015, dated 2020)", "key": {"NF-κB [1]": {"system": "NF-κB", "experiment": "EMSA of NF-κB DNA binding in C2C12 cells", "type": "cell-based, mouse", "settings": "200 μM", "experimental": "To confirm that the NBD mimetics reduce IKK activity, the extent of phosphorylation of the IKK target, IκBα, in response to 10 ng/ml of TNF-α was determined by Western blot at 0, 5 and 10 min after TNF-α stimulation. […] To determine if the mimetics also reduce NF-κB DNA binding activity, electrophoretic mobility shift assay (EMSA) was conducted both in vivo and in vitro.\nCytoplasmic and nuclear fractions were extracted using the NE-PER nuclear and cytoplasmic extraction reagents (ThermoFisher) according to the manufacturer's instructions. The gel shift assay was performed by following the previously described method (41). In brief, 5 μg of nuclear extract was incubated with gel shift binding buffer and an α-^32P-deoxycytodine triphosphate-radiolabeled NF-κB probe for 20 min at room temperature (MP Biomedicals). The oligonucleotide sequences are as follows: NF-κB template, 5′-[…]-3′; NF-κB annealing, 5′-[…]-3′. The reaction product was separated on a 6% non-denaturing polyacrylamide gel."}, "[2]": {"system": "embryonic fibroblasts from Ercc1−/− mice", "experiment": "Senescence rescue assay in ERCC1-deficient murine embryonic fibroblasts (SA-ß-gal)", "type": "cell-based, mouse", "settings": "oxidative stress conditions (20% O2)", "source_text": "In an attempt to identify new drugs able to improve healthspan, we have developed an assay for screening for drugs able to rescue primary “aged” fibroblasts from senescence. This assay uses murine embryonic fibroblasts (MEFs) from mice with accelerated aging due to a deficiency in an important DNA repair pathway, ERCC1-XPF. These MEFs undergo rapid senescence in culture, especially when grown under the high oxygen conditions that confers oxidative stress (FIGS. 18 and 19)."}, "[3]": {"system": "K14-Cre; Ercc1−/flox mice", "experiment": "Topical treatment of skin aging in K14-Cre; Ercc1−/flox mice", "type": "in vivo, mouse", "settings": "daily", "experimental": "To test the ability of NBDA-1 to function in vivo, the drug was tested in several models of aging. In FIG. 12, the ability of topical treatment of NBDA-1 to reduce signs of skin aging is shown. Areas on the back of normal mice or mice with enhanced skin aging (K14-Cre; Ercc1^−/flox) were shaved and then treated daily with drugs or control creams."}, "[4]": {"system": "K14-Cre+/−; Ercc1−/fl; Skh1−/− mice", "experiment": "Naked mouse skin photoaging study, topical treatment", "type": "in vivo", "experimental": "Naked mice of strain K14-Cre^+/−; Ercc1^−/fl; Skh1^−/− were treated with SR12343 versus vehicle control, then exposed to UV light for […]. The NBD mimetic SR12343 and SR2460 were tested for their ability to reduce the effects of photoaging in a mouse model. To make analysis of skin aging easier, usually hairless mice are utilized. Previously studies have shown that exposure of the hairless Skh1^−/− mouse to UV results in skin aging over 5 months as measured by skin thickness, elastosis, collagen damage, synthesis and degradation, increased ratio of collagen III to I, increased GAGs, and wrinkles and sagging. To accelerate this photoaging process, we generated a mouse model where Ercc1-dependent DNA repair activity is eliminated in K14 expressing skin cells in the Skh1^−/− mice (K14-Cre^+/−; Ercc1^−/fl; Skh1^−/− mice). In these mice, chronic UV exposure gives rise to evidence of photoaging 6 times faster than in the Skh1^−/− mice, allowing for analysis of skin aging in 2-4 weeks (FIGS. 51 (A, B, and C).\nFor testing of drugs for effects on photoargng in the K14-Cre^+/−; Ercc1^−/fl; Skh1^−/− mice, the mice are first tattooed to outlined quadrants for drug treatment. The mice were then exposed to UV 3× (total of 1 kJ/m^2/wk) for 4 weeks in a tanning booth. This dose regiment is the equivalent of one year of sun exposure.\nA 50 mg/ml solution of SR12343 was then prepared in a DMSO gel for topical application. The SR12343 gel was administered topically 5 times per week and mice exposed to UV 3× per week as indicated. It is important to note that the compound was administered following UV dosing to eliminate any anti-UV effects of the drug. At the midway point and at the end of the experiment, the mice were analyzed using a TEWL Meter for skin thickness, elasticity and hydration. At the time of sacrifice, skin sections are taken for analysis of the extent of cellular senescence by RT-PCR."}, "NF-κB [5]": {"system": "NF-κB", "experiment": "Dual-luciferase (NF-κB firefly / SV40 Renilla) reporter assay in HEK293 cells", "type": "cell-based", "settings": "Homo sapiens; inhibition of TNF-α-induced NF-κB activation, HEK293, luciferase assays at 0, 25, 50, 100 and 150 μM, GraphPad", "experimental": "Thus seven rounds of structural modification and optimization were performed to improve bioactivity and stability and more than one hundred small molecules were tested (data not shown). […] To minimize the influence of drug toxicity on the screening assay, a renilla luciferase reporter driven by the SV40 promoter was cotransfected with the NF-κB luciferase reporter into HEK293 cells as a co-reporter for normalization.\nInhibitory effects of NBD mimetics on NF-κB activation were measured by luciferase assays at multiple concentrations: 0, 25, 50, 100 and 150 μM. IC50 of NBD mimetics was determined based on the dose-dependent curve by using GraphPad.\nHEK293 cells grown in 10 cm plates were co-transfected with co-reporter of Renilla plasmid driven by SV40 and luciferase plasmid driven by NF-κB at the ratio of 1:3 with Lipofectamine 2000 (Invitrogen). Transiently transfected HEK293 were grown and treated as described above and subjected to a dual-luciferase reporter assay according to the manufacturer's instruction. Firefly luciferase activity was normalized to Renilla luciferase to get the relative luciferase activity."}}, "data": [{"smiles": "Nc1ncccc1C(=O)OCC(=O)Nc1ccc(Cl)cc1F", "note": "[NBDA-1, 2-((4-chloro-2-fluorophenyl)amino)-2-oxoethyl 2-aminonicotinate]", "values": [{"measurement": "TNFα-induced NF-κB DNA binding activity (EMSA)", "setting": "NF-κB [1]", "result": "significantly decreased TNFα-induced NF-κB DNA binding activity"}, {"measurement": "senescence (SA-ß-gal staining) of ERCC1-deficient MEFs", "setting": "[2]", "result": "reduced senescence"}, {"measurement": "epidermal thickness / skin architecture", "setting": "[3]", "result": "improved epidermal thickness to a greater extent than the peptide on which it was modeled"}]}, {"smiles": "O=C(CNc1ccc(Cl)cn1)NCCc1cccc(Br)c1", "note": "[SR12343, N-(3-bromophenethyl)-2-((5-chloropyridin-2-yl)amino)acetamide]", "values": [{"measurement": "overall appearance of the skin, wrinkles", "setting": "[4]; 50 mg/ml in DMSO gel, topical 5 times per week, UV 3× per week", "result": "reducing the number and depth of the wrinkles"}, {"measurement": "skin elasticity", "setting": "[4]; topical gel, UV-exposed", "result": "restores skin elasticity"}, {"measurement": "skin hydration", "setting": "[4]; topical gel, UV-exposed", "result": "improved skin hydration"}, {"measurement": "expression of senescent marker p16 in skin", "setting": "[4]; topical gel, UV-exposed, RT-PCR", "result": "lowered the expression of senescent markers such as p16"}, {"measurement": "molecular markers of skin aging and appearance of the skin", "setting": "[4]; topical treatment", "result": "improved molecular markers of skin aging as well as the overall appearance of the skin"}]}, {"smiles": "O=C(CNCCc1cc(F)cc(F)c1)Nc1ccc(Cl)cn1", "note": "[SR12460, N-(5-chloropyridin-2-yl)-2-((3,5-difluorophenethyl)amino)acetamide]", "values": [{"measurement": "IC50", "setting": "NF-κB [5]", "result": 11.2, "unit": "µM"}]}]}
